Assay results published in US11019818B2, “Herbicidal 3-substituted lactams” (FMC Corporation, priority 2017, dated 2021).

Assays:
Type in all cases: in vivo
[1] = test system: barnyardgrass (Echinochloa crus-galli); test: Test A postemergence, barnyardgrass; conditions: 0 to 100 scale (0 no effect, 100 complete control), approx. 10 d
From the text: (§1) Seeds of plant species selected from barnyardgrass (Echinochloa crus-galli), kochia (Kochia scoparia), ragweed (common ragweed, Ambrosia elatior), ryegrass, Italian (Italian ryegrass, Lolium multiflorum), foxtail, green (green foxtail, Setaria viridis), and pigweed (Amaranthus retroflexus) were planted into a blend of loam soil and sand and treated preemergence with a directed soil spray using test chemicals formulated in a non-phytotoxic solvent mixture which included a surfactant. At the same time, plants selected from these weed species and also wheat (Triticum aestivum), corn (Zea mays), blackgrass (Alopecurus myosuroides), and galium (catchweed bedstraw, Galium aparine) were planted in pots containing the same blend of loam soil and sand and treated with postemergence applications of test chemicals formulated in the same manner. Plants ranged in height from 2 to 10 cm and were in the one- to two-leaf stage for the postemergence treatment. Treated plants and untreated controls were maintained in a greenhouse for approximately 10 d, after which time all treated plants were compared to untreated controls and visually evaluated for injury. Plant response ratings, summarized in Table A, are based on a 0 to 100 scale where 0 is no effect and 100 is complete control. A dash (-) response means no test result.

[2] = test system: kochia (Kochia scoparia); test: Test A postemergence, kochia; conditions: 0 to 100 scale (0 no effect, 100 complete control), approx. 10 d
From the text: as §1

[3] = test system: ragweed (common ragweed, Ambrosia elatior); test: Test A postemergence, ragweed; conditions: 0 to 100 scale (0 no effect, 100 complete control), approx. 10 d
From the text: as §1

[4] = test system: ryegrass, Italian (Italian ryegrass, Lolium multiflorum); test: Test A postemergence, Italian ryegrass; conditions: 0 to 100 scale (0 no effect, 100 complete control), approx. 10 d
From the text: as §1

[5] = test system: foxtail, green (green foxtail, Setaria viridis); test: Test A postemergence, green foxtail; conditions: 0 to 100 scale (0 no effect, 100 complete control), approx. 10 d
From the text: as §1

[6] = test system: pigweed (Amaranthus retroflexus); test: Test A postemergence, pigweed; conditions: 0 to 100 scale (0 no effect, 100 complete control), approx. 10 d
From the text: as §1

[7] = test system: wheat (Triticum aestivum); test: Test A postemergence, wheat; conditions: 0 to 100 scale (0 no effect, 100 complete control), approx. 10 d
From the text: as §1

[8] = test system: corn (Zea mays); test: Test A postemergence, corn; conditions: 0 to 100 scale (0 no effect, 100 complete control), approx. 10 d
From the text: as §1

[9] = test system: blackgrass (Alopecurus myosuroides); test: Test A postemergence, blackgrass; conditions: 0 to 100 scale (0 no effect, 100 complete control), approx. 10 d
From the text: as §1

[10] = test system: galium (catchweed bedstraw, Galium aparine); test: Test A postemergence, galium; conditions: 0 to 100 scale (0 no effect, 100 complete control), approx. 10 d
From the text: as §1

[11] = test system: barnyardgrass (Echinochloa crus-galli); test: Test A preemergence, barnyardgrass; conditions: 0 to 100 scale (0 no effect, 100 complete control), approx. 10 d
From the text: as §1

[12] = test system: kochia (Kochia scoparia); test: Test A preemergence, kochia; conditions: 0 to 100 scale (0 no effect, 100 complete control), approx. 10 d
From the text: as §1

[13] = test system: ragweed (common ragweed, Ambrosia elatior); test: Test A preemergence, ragweed; conditions: 0 to 100 scale (0 no effect, 100 complete control), approx. 10 d
From the text: as §1

[14] = test system: ryegrass, Italian (Italian ryegrass, Lolium multiflorum); test: Test A preemergence, Italian ryegrass; conditions: 0 to 100 scale (0 no effect, 100 complete control), approx. 10 d
From the text: as §1

[15] = test system: foxtail, green (green foxtail, Setaria viridis); test: Test A preemergence, green foxtail; conditions: 0 to 100 scale (0 no effect, 100 complete control), approx. 10 d
From the text: as §1

[16] = test system: pigweed (Amaranthus retroflexus); test: Test A preemergence, pigweed; conditions: 0 to 100 scale (0 no effect, 100 complete control), approx. 10 d
From the text: as §1

[17] = test system: barnyardgrass (Echinochloa crus-galli); test: Test B flooded paddy test, barnyardgrass; conditions: Flood, 250 g ai/ha; applied to paddy water at 2-leaf stage; visual rating after 13 to 15 d; scale 0 to 100, 0 is no effect, 100 is complete control
Protocol: (§2) Plant species in the flooded paddy test selected from rice (Oryza sativa), sedge, umbrella (small-flower umbrella sedge, Cyperus difformis), ducksalad (Heteranthera limosa), and barnyardgrass (Echinochloa crus-galli) were grown to the 2-leaf stage for testing. At time of treatment, test pots were flooded to 3 cm above the soil surface, treated by application of test compounds directly to the paddy water, and then maintained at that water depth for the duration of the test. Treated plants and controls were maintained in a greenhouse for 13 to 15 d, after which time all species were compared to controls and visually evaluated. Plant response ratings, summarized in Table B, are based on a scale of 0 to 100 where 0 is no effect and 100 is complete control. A dash (-) response means no test result.

[18] = test system: ducksalad (Heteranthera limosa); test: Test B flooded paddy test, ducksalad; conditions: Flood, 250 g ai/ha; applied to paddy water at 2-leaf stage; visual rating after 13 to 15 d; scale 0 to 100, 0 is no effect, 100 is complete control
Protocol: as §2

[19] = test system: rice (Oryza sativa); test: Test B flooded paddy test, rice; conditions: Flood, 250 g ai/ha; applied to paddy water at 2-leaf stage; visual rating after 13 to 15 d; scale 0 to 100, 0 is no effect, 100 is complete control
Protocol: as §2

[20] = test system: sedge, umbrella (small-flower umbrella sedge, Cyperus difformis); test: Test B flooded paddy test, umbrella sedge; conditions: Flood, 250 g ai/ha; applied to paddy water at 2-leaf stage; visual rating after 13 to 15 d; scale 0 to 100, 0 is no effect, 100 is complete control
Protocol: as §2

Molecule	Plant response rating, Barnyardgrass ([1]; 31 g ai/ha)	Plant response rating, Barnyardgrass ([1]; 125 g ai/ha)	Plant response rating, Kochia ([2]; 31 g ai/ha)	Plant response rating, Kochia ([2]; 125 g ai/ha)	Plant response rating, Ragweed ([3]; 31 g ai/ha)	Plant response rating, Ragweed ([3]; 125 g ai/ha)	Plant response rating, Ryegrass, Italian ([4]; 31 g ai/ha)	Plant response rating, Ryegrass, Italian ([4]; 125 g ai/ha)	Plant response rating, Foxtail, Green ([5]; 31 g ai/ha)	Plant response rating, Foxtail, Green ([5]; 125 g ai/ha)	Plant response rating, Pigweed ([6]; 31 g ai/ha)	Plant response rating, Pigweed ([6]; 125 g ai/ha)	Plant response rating, Wheat ([7]; 31 g ai/ha)	Plant response rating, Wheat ([7]; 125 g ai/ha)	Plant response rating, Corn ([8]; 31 g ai/ha)	Plant response rating, Corn ([8]; 125 g ai/ha)	Plant response rating, Blackgrass ([9]; 31 g ai/ha)	Plant response rating, Blackgrass ([9]; 125 g ai/ha)	Plant response rating, Galium ([10]; 31 g ai/ha)	Plant response rating, Galium ([10]; 125 g ai/ha)	further results
CN(C)CC1(C(=O)Nc2cccc(F)c2F)C(=O)N(C)CC1c1ccc(C(F)(F)F)cc1 (stereo not drawn) [Compound 9]	70	90	50	70	30	30	50	60	50	90	30	80	30	60	40	50	50	60	60	60	Plant response rating, Barnyardgrass ([11]; 31 g ai/ha): 90; Plant response rating, Barnyardgrass ([11]; 125 g ai/ha): 90; Plant response rating, Kochia ([12]; 31 g ai/ha): 30; Plant response rating, Kochia ([12]; 125 g ai/ha): 70; Plant response rating, Ragweed ([13]; 31 g ai/ha): 0; Plant response rating, Ragweed ([13]; 125 g ai/ha): 60; Plant response rating, Ryegrass, Italian ([14]; 31 g ai/ha): 60; Plant response rating, Ryegrass, Italian ([14]; 125 g ai/ha): 80; Plant response rating, Foxtail, Green ([15]; 31 g ai/ha): 90; Plant response rating, Foxtail, Green ([15]; 125 g ai/ha): 90; Plant response rating, Pigweed ([16]; 31 g ai/ha): 70; Plant response rating, Pigweed ([16]; 125 g ai/ha): 80; Plant response rating, Barnyardgrass [17]: 65; Plant response rating, Ducksalad [18]: 95; Plant response rating, Rice [19]: 0; Plant response rating, Sedge, Umbrella [20]: 0
(3S,4R)-3-acetyl-N-(2,3-difluorophenyl)-1-methyl-2-oxo-4-[4-(trifluoromethyl)phenyl]-3-pyrrolidinecarboxamide [Compound 3]	40	70	0	60	0	40	40	50	0	60	40	60	0	40	10	80	20	30	40	50	Plant response rating, Barnyardgrass ([11]; 31 g ai/ha): 80; Plant response rating, Barnyardgrass ([11]; 125 g ai/ha): 90; Plant response rating, Kochia ([12]; 31 g ai/ha): 0; Plant response rating, Kochia ([12]; 125 g ai/ha): 50; Plant response rating, Ragweed ([13]; 31 g ai/ha): 0; Plant response rating, Ragweed ([13]; 125 g ai/ha): 20; Plant response rating, Ryegrass, Italian ([14]; 31 g ai/ha): 20; Plant response rating, Ryegrass, Italian ([14]; 125 g ai/ha): 40; Plant response rating, Foxtail, Green ([15]; 31 g ai/ha): 90; Plant response rating, Foxtail, Green ([15]; 125 g ai/ha): 90; Plant response rating, Pigweed ([16]; 31 g ai/ha): 20; Plant response rating, Pigweed ([16]; 125 g ai/ha): 100; Plant response rating, Barnyardgrass [17]: 45; Plant response rating, Ducksalad [18]: 80; Plant response rating, Rice [19]: 10; Plant response rating, Sedge, Umbrella [20]: 0
